Read-outs that look alike come from different tables or passages of the source.
What was measured:
[1] = test system: P. falciparum multidrug resistant line Dd2; assay: SYBR Green I-based antiplasmodial assay, asexual blood stage, Dd2; format: cell-based, Plasmodium falciparum
Experimental: The antiplasmodial activity of these analogs was assessed in P. falciparum asexual blood stage using a SYBR Green I-based assay. Compounds were tested in both the multidrug resistant line Dd2, and the chloroquine-sensitive line 3D7, to probe any potential for preexisting resistance. […] These methyldeoxaphomin analogs were also cross-screened for cytotoxicity in the human cell line HepG2 to determine their selectivity for the Plasmodium parasite. […] This effect was maintained with analog NPDG-F where both R1 and R2 were substituted with OH groups. […] In addition, the hydroxyl group at carbon 7 seems to be critical for function as a drastic loss of potency was found in NPDG-D as compared to B and C. […]
Plasmodium blood stage culture
Parasite culture in the Chakrabarti lab was maintained following a modified Trager and Jensen protocol (Trager & Jensen, 1976) as previously described (Lee et al., 2021) with RPMI 1640 with 25 mM HEPES pH 7.4, 26 mM NaHCO3, 15 mg/L hypoxanthine, 0.5% Albumax II, 25 mg/L gentamycin, and 2% dextrose. Parasites were grown with human A+ erythrocytes obtained from Florida OneBlood. Cultures were kept in an incubator with 5% […]
Antiplasmodial activity screening
SYBR Green I-based fluorescence assay was performed as previously described (Lee et al., 2021) following protocols by Smilkstein et. al. (Smilkstein et al., 2004). Asynchronous Dd2 parasites were added to serially diluted compounds and incubated for 72 h at 5% CO2, 95% air at 37°C. Plates were then frozen at -80°C, thawed, and incubated for one hour with 1x SYBR Green I in a lysis buffer (20 mM Tris-HCL, 0.08% saponin, 5 mM EDTA, and 0.8% Triton X-100). Fluorescence was then read on a Synergy Neo2 multimode reader (BioTek Winsooki, VT). […]

[2] = test system: P. berghei liver stage in HepG2 cells; assay: High content imaging liver stage screening; format: cell-based, Plasmodium berghei
Experimental: Given these findings, we sought to observe the effects of NPDG-F on hepatic merozoites to see whether they were similarly impacted. To this end, HepG2 cells were infected with P. berghei sporozoites expressing luciferase and seeded onto a microtiter plate with NPDG-F at 2 HPI. At 72 HPI, a high content imaging (HCI) readout of treated parasites was performed to observe the impact on parasite maturation and merozoite formation via the expression of liver stage maturation markers MSP1 and AMA1. […] Infected monolayers treated with 1.1 µM of methyldeoxaphomin NPDG-F from 2-55 HPI were immunolabeled to examine the localization of MSP1 and AMA1 relative to parasite DNA during the period of merozoite formation (Fig. 4G). […]
Parasite reduction ratio adapted from protocol by Sanz et al (Sanz et al., 2012). […] After 3 weeks, growth was determined via SYBR Green I staining. The PRR was calculated and graphed using Graphpad Prism version […]
To examine the impact of methyldeoxaphomin NDPG F on the Plasmodium liver stage, HepG2 cells were infected with a luciferase-expressing strain of P. berghei. […] At 48 HPI, luciferase expression was measured as described(Van Voorhis et al., 2016) and parasite growth was quantified. After 72 HPI, High content imaging was performed to observe the relative expression of MSP1 and AMA1, the size and quantity of exoerythrocytic form parasites, and the HepG2 area occupied. […]

P. falciparum = assay: Parasite reduction ratio (PRR); format: cell-based, Plasmodium falciparum; settings: 10 × EC50
Experimental: After a 24 h lag phase, only 10^0.64 parasites are killed within the first replication cycle (48 h). […] We also examined the in vitro killing rate in Dd2 through flow cytometric analysis. […]
Parasite reduction ratio adapted from protocol by Sanz et al (Sanz et al., 2012). In brief, early ring stage mono-infected RBCs at 106 were incubated with a 10 x EC50 concentration of NPDG-F, DHA, or atovaquone for either 24, 48, 72, 96, or 120 h. Following incubations, cells were washed and serially diluted. After 3 weeks, growth was determined via SYBR […]
Green I staining. […]

Dd2 = assay: Rate of killing assay by flow cytometry; format: cell-based, Plasmodium falciparum; settings: 10 × EC50 for 12, 24, or 48 h
Experimental: After a 24 h lag phase, only 10^0.64 parasites are killed within the first replication cycle (48 h). […] We also examined the in vitro killing rate in Dd2 through flow cytometric analysis.
Following the previously described protocol (Collins et al., 2021), compound or vehicle control was added to Dd2 culture in the majority ring stage and incubated for either 12, 24, or 48 h prior to compound removal. Samples were then taken at the time of compound removal, and every 24 h for 6 days for flow analysis with SYBR Green I and Mitotracker Deep red FM. Analysis was performed in Flowjo version 10 with gating using DHA, vehicle, no mitotracker, no staining, and uninfected RBC controls. Cells designated as SYBR positive and mitotracker positive were gated as “viable parasites” and graphed using Graphpad Prism version 10. […]

With C=C1C(C)C2C(Cc3ccccc3)NC(=O)C23C(=O)C=CC(O)C(O)C(C)CC(C)CC=CC3C1O (stereo not drawn) [Methyldeoxaphomin NPDG-F] the EC50 ([1]; Plasmodium falciparum, DD2, 72 h, read-out: Dd2 EC50, means from triplicate experiments ± SEM, 72 h) was 0.55 µM, the EC50 ([1]; Plasmodium falciparum, DD2, read-out: Dd2: Average EC50, average ± SEM of three replicates) was 0.55 ± 0.04 µM and the EC50 ([1]; Plasmodium falciparum, DD2, read-out: Dd2: EC50, individual replicates) was 0.5 µM. For the same molecule, the EC50 ([1]; Plasmodium falciparum, DD2, read-out: EC50 in Dd2, abstract) was 0.55 µM, the EC50 ([1]; read-out: Dd2: EC50, individual replicates) was 0.58 µM and the “effect on liver-stage parasite development” value ([2]; 1.1 µM from 2-55 HPI) was “developmental failure during schizogony”. For the same molecule, the “MSP1 positive exoerythrocytic form (EEF) parasites remaining in the monolayer” value ([2]; 72 HPI, added at 2 HPI) was “sharp increase”, the “99.9% PCT (parasite clearance time)” value (P. falciparum) was “more than 96 h” and the killing profile (P. falciparum) was “gradual killing profile”. For the same molecule, the lag phase (P. falciparum) was 24 h, the “log(PRR)” value (P. falciparum) was 0.64 and the “in vitro killing rate phenotype” value (Dd2) was “delayed inhibition phenotype and a cytocidal killing profile”.

Source: PMC11874377, “Fungal-derived methyldeoxaphomins target Plasmodium falciparum segregation through the inhibition of PfActin1” (Proceedings of the National Academy of Sciences of the …, 2025)
